The first assay has as its target T1, ΔF508-CFTR (Homo sapiens, UniProt P13569, DEL508-508).
T1 construct: expressed in transfected cells
As to the kind of experiment: Membrane potential optical assay (FRET voltage-sensor dyes, VIPR), identification of potentiator compounds. The class given is cell-based. As to conditions: Table 3; assay not given. The procedure, abridged: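 Potentiator screen measured membrane potential via FRET between CC2-DMPE donor and DiSBAC2(3), read on VIPR II. Compound went in with the first addition of chloride-free gluconate bath; cells were ΔF508-CFTR-expressing NIH3T3 mouse fibroblasts, temperature-corrected at 27 °C for 24 h.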
T1 sequence (P13569 with tags, fused parts or gaps DEL508-508): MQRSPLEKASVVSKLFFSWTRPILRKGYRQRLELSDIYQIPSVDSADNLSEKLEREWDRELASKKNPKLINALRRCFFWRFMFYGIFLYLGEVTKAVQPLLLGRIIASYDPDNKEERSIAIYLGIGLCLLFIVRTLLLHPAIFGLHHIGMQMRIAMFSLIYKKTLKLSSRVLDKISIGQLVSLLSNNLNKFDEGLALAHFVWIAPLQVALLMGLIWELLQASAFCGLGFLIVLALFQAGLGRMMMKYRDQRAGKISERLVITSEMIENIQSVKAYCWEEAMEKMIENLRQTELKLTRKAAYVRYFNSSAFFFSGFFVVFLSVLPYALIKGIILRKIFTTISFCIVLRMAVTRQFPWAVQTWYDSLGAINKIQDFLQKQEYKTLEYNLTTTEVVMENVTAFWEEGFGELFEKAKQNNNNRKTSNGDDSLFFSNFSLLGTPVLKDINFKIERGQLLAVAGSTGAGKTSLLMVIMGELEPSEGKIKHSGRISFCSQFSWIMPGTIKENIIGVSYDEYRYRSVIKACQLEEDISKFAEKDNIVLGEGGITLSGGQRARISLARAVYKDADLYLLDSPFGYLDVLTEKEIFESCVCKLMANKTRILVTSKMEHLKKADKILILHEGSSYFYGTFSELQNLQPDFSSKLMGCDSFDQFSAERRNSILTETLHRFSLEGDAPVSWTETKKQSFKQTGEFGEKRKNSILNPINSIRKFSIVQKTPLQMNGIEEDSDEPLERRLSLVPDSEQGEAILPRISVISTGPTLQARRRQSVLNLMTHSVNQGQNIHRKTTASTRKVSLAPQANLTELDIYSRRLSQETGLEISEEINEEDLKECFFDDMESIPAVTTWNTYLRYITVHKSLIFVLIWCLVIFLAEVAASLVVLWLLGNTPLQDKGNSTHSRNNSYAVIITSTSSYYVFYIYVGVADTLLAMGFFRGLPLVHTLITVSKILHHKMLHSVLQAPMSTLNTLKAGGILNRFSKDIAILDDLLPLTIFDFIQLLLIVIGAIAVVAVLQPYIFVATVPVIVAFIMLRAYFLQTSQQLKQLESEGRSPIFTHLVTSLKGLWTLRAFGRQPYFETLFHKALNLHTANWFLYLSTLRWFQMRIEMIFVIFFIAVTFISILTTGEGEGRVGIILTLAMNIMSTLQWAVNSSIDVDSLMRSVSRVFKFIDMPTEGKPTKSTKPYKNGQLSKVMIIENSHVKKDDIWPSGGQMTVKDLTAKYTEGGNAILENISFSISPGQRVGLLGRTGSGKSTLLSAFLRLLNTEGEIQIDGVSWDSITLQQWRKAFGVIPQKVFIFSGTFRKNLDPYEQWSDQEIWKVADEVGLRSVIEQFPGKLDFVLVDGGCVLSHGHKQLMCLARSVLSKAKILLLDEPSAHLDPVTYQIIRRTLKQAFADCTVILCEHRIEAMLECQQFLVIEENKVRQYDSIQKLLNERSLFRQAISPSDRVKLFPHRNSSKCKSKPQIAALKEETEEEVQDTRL
For the compound `CC(C)c1ccc(NC(=O)c2c[nH]c3ccccc3c2=O)cc1` [Compound 425, N-(4-isopropylphenyl)-4-oxo-1H-quinoline-3-carboxamide], the EC50 was below 10 µM.
The same measure, in the same setting: the same measure for `Cc1cc(-c2ccccc2NC(=O)c2c[nH]c3ccccc3c2=O)ccc1F` [Compound 79, N-[2-(4-fluoro-3-methyl-phenyl)phenyl]-4-oxo-1H-quinoline-3-carboxamide]: below 10 µM.

Staying with this assay, now noted: Table 3; assay not given; read-out: % Activity (% Efficacy, relative efficacy).
For `CCOC(=O)Nc1ccc(C(C)C)c(NC(=O)c2c[nH]c3ccccc3c2=O)c1` [Compound 269, [4-isopropyl-3-[(4-oxo-1H-quinolin-3-yl)carbonylamino]phenyl]aminoformic acid ethyl ester], the Emax lay in the range of 25 to 100%.
The same measure, in the same setting: the figure for `COC(=O)[C@@H]1[C@@H](C)CCN1c1ccc(NC(=O)c2c[nH]c3ccccc3c2=O)c(C(F)(F)F)c1` [Compound 530, (2S,3S)-methyl 3-methyl-1-(4-(4-oxo-1,4-dihydroquinoline-3-carboxamido)-3-(trifluoromethyl)phenyl)pyrrolidine-2-carboxylate] is 25 to 100%.
In the case of `O=C(Nc1ccccc1-c1nc(-c2ccc(Cl)cc2)no1)c1c[nH]c2ccccc2c1=O` [Compound 102, N-[2-[3-(4-chlorophenyl)-1,2,4-oxadiazol-5-yl]phenyl]-4-oxo-1H-quinoline-3-carboxamide], the Emax lay within 25 to 100%.
Still for that read-out and setting: the figure for `CC(=O)n1ccc2ccc(NC(=O)c3c[nH]c4ccccc4c3=O)cc21` [Compound 187, N-(1-acetyl-1H-indol-6-yl)-4-oxo-1H-quinoline-3-carboxamide] is 25 to 100%; for `O=C(Nc1ccc(C(F)(F)F)cn1)c1c[nH]c2ccccc2c1=O` [Compound 74, 4-oxo-N-[5-(trifluoromethyl)-2-pyridyl]-1H-quinoline-3-carboxamide] it is below 25%; for `O=C(Nc1ccccn1)c1c[nH]c2ccccc2c1=O` [Compound 155, 4-oxo-N-(2-pyridyl)-1H-quinoline-3-carboxamide] it is below 25%.
Consider `CC(C)c1ccc(NC(=O)c2c[nH]c3ccccc3c2=O)cc1` [Compound 425, N-(4-isopropylphenyl)-4-oxo-1H-quinoline-3-carboxamide], for which the Emax was in the range of 25 to 100%.
Same read-out and setting: the figure for `Cn1cc(C(=O)Nc2ccccc2)c(=O)c2ccccc21` [Compound 468, 1-methyl-4-oxo-N-phenyl-1H-quinoline-3-carboxamide] is below 25%.
As to `CC(C)(C)c1ccc(NC(=O)c2c[nH]c3ccccc3c2=O)cc1N1CCCC1` [Compound 707, 4-oxo-N-(3-pyrrolidin-1-yl-4-tert-butyl-phenyl)-1H-quinoline-3-carboxamide], the Emax is 25 to 100%.
Take `COc1cc(NC(=O)c2c[nH]c3cccc(O)c3c2=O)cc(C(F)(F)F)c1` [Compound 502, 5-hydroxy-N-[3-methoxy-5-(trifluoromethyl)phenyl]-4-oxo-1H-quinoline-3-carboxamide]: the Emax was 25 to 100%.
The same measure, in the same setting: the figure for `Cc1cccc(NC(=O)c2c[nH]c3ccccc3c2=O)n1` [Compound 173, N-(6-methyl-2-pyridyl)-4-oxo-1H-quinoline-3-carboxamide] is below 25%; for `O=C(Nc1cc2[nH]ccc2cc1Cl)c1c[nH]c2ccccc2c1=O` [Compound 32, N-(5-chloro-1H-indol-6-yl)-4-oxo-1H-quinoline-3-carboxamide] it is 25 to 100%.
For `O=C(Nc1cccc2c1CCC2)c1c[nH]c2ccccc2c1=O` [Compound 373, N-indan-4-yl-4-oxo-1H-quinoline-3-carboxamide], the Emax is 25 to 100%.
For the compound `O=C(Nc1ccccc1N1CCCCC1)c1c[nH]c2ccccc2c1=O` [Compound 26, 4-oxo-N-[2-(1-piperidyl)phenyl]-1H-quinoline-3-carboxamide], the Emax is 25 to 100%.
On the same count and under the same terms, the same measure for `Cc1cc(C)c(NC(=O)c2c[nH]c3ccccc3c2=O)c(C)c1` [Compound 50, 4-oxo-N-(2,4,6-trimethylphenyl)-1H-quinoline-3-carboxamide]: 25 to 100%.
For the compound `C#Cc1ccc(NC(=O)c2c[nH]c3ccccc3c2=O)cc1` [Compound 332, N-(4-ethynylphenyl)-4-oxo-1H-quinoline-3-carboxamide], the Emax was 25 to 100%.
For `COc1cccc2[nH]cc(C(=O)Nc3ccc4cc[nH]c4c3)c(=O)c12` [Compound 479, N-(1H-indol-6-yl)-5-methoxy-4-oxo-1H-quinoline-3-carboxamide], the Emax lay in the range of 25 to 100%.
Same read-out and setting: the figure for `Nc1cc(NC(=O)c2c[nH]c3ccccc3c2=O)ccc1OC(F)(F)F` [Compound 58, N-[3-amino-4-(trifluoromethoxy)phenyl]-4-oxo-1H-quinoline-3-carboxamide] is 25 to 100%; for `O=C(Nc1ccccc1-c1ccccc1C(F)(F)F)c1c[nH]c2ccccc2c1=O` [Compound 11, 4-oxo-N-[2-[2-(trifluoromethyl)phenyl]phenyl]-1H-quinoline-3-carboxamide] it is 25 to 100%; for `O=C(Nc1cc2[nH]ccc2cc1C(=O)N1CCCCC1)c1c[nH]c2ccccc2c1=O` [Compound 148, 4-Oxo-N-[5-(1-piperidylcarbonyl)-1H-indol-6-yl]-1H-quinoline-3-carboxamide] it is 25 to 100%.
Same read-out and setting: the same measure for `CC1(c2ccc(NC(=O)c3c[nH]c4ccccc4c3=O)cc2)COC1` [Compound 523, N-[4-(3-methyloxetan-3-yl)phenyl]-4-oxo-1H-quinoline-3-carboxamide]: 25 to 100%; for `CCOc1cccc2c(=O)c(C(=O)Nc3ccc(C(C)C)cc3C(F)(F)F)c[nH]c12` [Compound 517, 8-ethoxy-N-[4-isopropyl-2-(trifluoromethyl)phenyl]-4-oxo-1H-quinoline-3-carboxamide]: below 25%; for `CC(C)(C)c1cc(C(C)(C)C)c(NC(=O)c2c[nH]c3ccc(C#N)cc3c2=O)cc1O` [Compound 525, 6-cyano-N-(5-hydroxy-2,4-ditert-butyl-phenyl)-4-oxo-1H-quinoline-3-carboxamide]: below 25%.
With `COc1ccc2[nH]cc(C(=O)Nc3cc(O)c(C4(C)CCCCC4)cc3F)c(=O)c2c1` [Compound 584, N-[2-fluoro-5-hydroxy-4-(1-methylcyclohexyl)-phenyl]-6-methoxy-4-oxo-1H-quinoline-3-carboxamide], the Emax fell in the range of 25 to 100%.
Consider `Cc1cc(-c2ccccc2NC(=O)c2c[nH]c3ccccc3c2=O)ccc1F` [Compound 79, N-[2-(4-fluoro-3-methyl-phenyl)phenyl]-4-oxo-1H-quinoline-3-carboxamide], for which the Emax lay within 25 to 100%.
On the same count and under the same terms, the same measure for `CCOc1ccccc1-c1cc2cc[nH]c2cc1NC(=O)c1c[nH]c2ccccc2c1=O` [Compound 327, N-[5-(2-ethoxyphenyl)-1H-indol-6-yl]-4-oxo-1H-quinoline-3-carboxamide]: 25 to 100%; for `CC(C)c1cc(C(F)(F)F)c(NC(=O)c2c[nH]c3ccccc3c2=O)cc1O` [Compound 497, N-[5-hydroxy-4-isopropyl-2-(trifluoromethyl)phenyl]-4-oxo-1H-quinoline-3-carboxamide]: above 100%.
For `CN(C)CCNC(=O)c1ccc(-c2cc3cc[nH]c3cc2NC(=O)c2c[nH]c3ccccc3c2=O)cc1` [Compound 347, N-[5-[4-(2-dimethylaminoethylcarbamoyl)phenyl]-1H-indol-6-yl]-4-oxo-1H-quinoline-3-carboxamide], the Emax was 25 to 100%.
The same measure, in the same setting: the figure for `O=C(Nc1ccc(F)cc1)c1c[nH]c2ccccc2c1=O` [Compound 198, N-(4-fluorophenyl)-4-oxo-1H-quinoline-3-carboxamide] is 25 to 100%.
In the case of `O=C(Nc1ccc2cc[nH]c2c1)c1cnc2cc(C(F)(F)F)cc(C(F)(F)F)c2c1O` [Compound 130, 4-hydroxy-N-(1H-indol-6-yl)-5,7-bis(trifluoromethyl)quinoline-3-carboxamide], the Emax was 25 to 100%.

These data come from US8802700B2 (Vertex Pharmaceuticals Incorporated, priority 2010, dated 2014).
